Assay results as given in patent publication US20220160688A1, “INHIBITION OF NAMPT AND/OR SARM1 FOR THE TREATMENT OF AXONAL DEGRADATION” (THE JOHNS HOPKINS UNIVERSITY, priority 2019, published 2022).
Entries after “also recorded” stand apart in the source; their conditions may differ.

What was measured:
[1] = test system: Mouse dorsal root ganglion (DRG) cells; experiment: Microfluidic based axon degeneration assay (axotomy, degeneration index); type: cell-based; settings: for efficacy against Wallerian degeneration compared with FK866: tested at different concentrations; for Optimized Concentration used (from dose response curves): tested 2 hours following axotomy
Protocol: A poly-dimethylsiloxane (PDMS)-based microfluidic device described by Hosmane and colleagues was used for these experiments (see, FIG. 16) (see, Hosmane, et al., Lab Chip 2010, 10, 741-747). This device provisions a perikaryal compartment where nerve cells are first placed and a juxtaposed array of 200 microchannels towards which axons grow and through which they traverse to reach a third axonal compartment. Mouse dorsal root ganglion (DRG) cells were prepared from E12-13 embryos and plated to the perikaryal compartment. After 6-7 days of culture at 37° C. and 5% CO2, axons were cut using a razor blade with vehicle or reagents. Images of the axonal compartment were taken at various time intervals at 20× magnification. Images were then analyzed for degeneration index (DI) which indicates percentage of fragmented axons over total axonal area, and drug-treated axons were compared to vehicle treated or uninjured axons. Live time-lapse images were taken as needed.

[2] = test system: IA-injured Thy1-eYFP-H mice; experiment: CLARITY-based counts of axonal lesions in the CST after impact acceleration (IA) injury; type: in vivo, mouse; settings: FK866 10 mg/kg i.p. immediately after injury then every 6 h, vs vehicle
From the text: IA injury was produced under gas anesthesia with 2% isoflurane. Under aseptic conditions and with the subject in a small-animal stereotactic frame, a 5-mm-diameter steel disc was glued on the exposed cranium between bregma and lambda to prevent skull fracture. The mouse was then placed prone on a foam bed under a hollow Plexiglas tube and secured with tape as described previously (see, Xu L, (2016) Exp Neurol 275:436-449). Injury was produced by dropping a brass weight from a height of 1 m through the Plexiglas tube onto the disk. In all cases except the impact dose-response study outlined below, that weight was 60 g. The foam bed was pulled immediately at the rebound of the weight off the metal disc, such as to prevent a second impact. The metal disc was then removed, scalp incision was closed with surgical staples, and the animal returned to cage for full recovery. Subjects with skull fractures confirmed with a surgical microscope were excluded from the study. […]
For 3D visualization and quantitative analysis of axonal injury of cleared brainstems, we used the software suite Imaris (Bitplane). […] For the detection and quantification of axonal swellings based on YFP and APP, the spot detection function for the whole CST volume from the pons to the pyramidal decussation or cervical spinal cord was used. […]

[3] = test system: mice injured with impact-acceleration; experiment: Pellet-reaching task after impact-acceleration traumatic brain injury; type: in vivo, mouse; settings: drug administered continuously for 14 days post injury (osmotic pump); vs vehicle-treated mice
Protocol: Experiments were conducted to characterize the effects of SARM1 deletion or pharmacological SARM1 blockade on corticospinal-dependent motor deficits after traumatic brain injury (impact-acceleration). This was tested on the pellet-reaching task, i.e. the golden-standard to assess skilled function of the forelimbs in rodents relevant to a similar task used to assess fine motor function in humans. Specifically, experiments trained mice for 2 weeks before TBI in order to reach peak performance in the task. At that point the trained mice were injured with impact-acceleration. Experiments next measured their performance every day for two weeks post injury and comparisons were made between groups of mice administered FK866 and vehicle treated mice (control group).
Mice were placed under food restriction or 2 days to lose approximately 10% of their body weight. Following this, the shaping phase of the experiment was initiated: two mice were placed in the training chamber comprised of a clear Plexiglas chamber with ample food for 20 minutes for the first day, whereas one mouse was placed in the same chamber on day 2. The training chamber has a single slit through which the mouse can retrieve a pellet of food placed on the outside right in front of the slit. […] Retrieval attempts were recorded and characterized as successful only if a mouse retrieved the pellet and put it in its mouth. […]

Compound	efficacy against Wallerian degeneration compared with FK866 ([1]; axotomized DRG axons)	Optimized Concentration used (from dose response curves) [1]	other results
N#CN=C(NCCCCCCOc1ccc(Cl)cc1)Nc1ccncc1 [CHS-828]	comparably strong efficacy	250 nM	
O=C(/C=C/c1cccnc1)NCCCCC1CCN(C(=O)c2ccccc2)CC1 [FK866]		100 nM	number (density) of axonal lesions per anatomical segment (CST×RST, pyramidal decussation, cervical cord) ([2]; 24 h after injury): significantly lower number of axonal lesions; total number of axonal lesions in the CST from the pons to cervical spinal cord ([2]; counted 24 h after injury, 10 mg/kg): significantly lower number of axonal lesions; also recorded: smaller number of axonal lesions; skilled motor function (pellet-reaching performance) [3]: significant preservation of skilled motor function; also recorded: maintain their pellet-reaching skill; optimal therapeutic window of treatment onset ([1]; FK866 given at 0, 2, 4, 6 hours following injury): within two to six hours of injury; delay of further fragmentation ([1]; axotomized DRG axons, treatment after the onset of visible fragmentation): still effective in delaying further fragmentation; protection against Wallerian degeneration (degeneration index) ([1]; axotomized DRG axons, treatment at 2 hours post-injury): Maximum protection against WD
O=C(CCCCCCCn1cc(-c2cccnc2)nn1)Nc1ccccc1-c1ccccc1 [GPP78]	comparably strong efficacy	1000 nM	
NC(=O)c1ccc[n+]([C@@H]2O[C@H](CO)[C@@H](O)[C@H]2O)c1 [NAR, nicotinamide riboside]			effect of added NAR on the protective effect of FK866 ([1]; FK866 and/or NAR at the time of injury): further augmented the protective effect of FK866
NC(=O)c1ccc[n+]([C@@H]2O[C@H](COP(=O)([O-])O)[C@@H](O)[C@H]2O)c1 [NMN, nicotinamide mononucleotide]			effect of added NMN on the protection by NAMPT inhibition (FK866) ([1]; FK866 at time of injury, NMN added 0, 2, 4 hours post axotomy): reversed
CC(C)(C)c1ccc(S(=O)(=O)NCc2ccc(C(=O)Nc3cccnc3)cc2)cc1 [STF31]	comparably strong efficacy	2000 nM	
Cc1ccc(S(=O)(=O)Cc2nc(-c3ccc(C(=O)NCc4cccnc4)cc3)oc2C)cc1 [STF118804]	comparably strong efficacy	250 nM	
